Where a SMILES comes first, the peptide text is derived from it. Bridges are numbered along the chain shown (N, C = ends).
What was measured:
rat α3β2 nAChR = rat α3β2 nAChR (Rattus norvegicus, UniProt P04757+P12390); assay: cell-based
[1] = target: human CaV2.2 (α1B, β3, α2δ1) (Homo sapiens, UniProt Q00975); assay: cell-based
Chain of human CaV2.2 (α1B, β3, α2δ1) (Q00975 whole entry, looked up): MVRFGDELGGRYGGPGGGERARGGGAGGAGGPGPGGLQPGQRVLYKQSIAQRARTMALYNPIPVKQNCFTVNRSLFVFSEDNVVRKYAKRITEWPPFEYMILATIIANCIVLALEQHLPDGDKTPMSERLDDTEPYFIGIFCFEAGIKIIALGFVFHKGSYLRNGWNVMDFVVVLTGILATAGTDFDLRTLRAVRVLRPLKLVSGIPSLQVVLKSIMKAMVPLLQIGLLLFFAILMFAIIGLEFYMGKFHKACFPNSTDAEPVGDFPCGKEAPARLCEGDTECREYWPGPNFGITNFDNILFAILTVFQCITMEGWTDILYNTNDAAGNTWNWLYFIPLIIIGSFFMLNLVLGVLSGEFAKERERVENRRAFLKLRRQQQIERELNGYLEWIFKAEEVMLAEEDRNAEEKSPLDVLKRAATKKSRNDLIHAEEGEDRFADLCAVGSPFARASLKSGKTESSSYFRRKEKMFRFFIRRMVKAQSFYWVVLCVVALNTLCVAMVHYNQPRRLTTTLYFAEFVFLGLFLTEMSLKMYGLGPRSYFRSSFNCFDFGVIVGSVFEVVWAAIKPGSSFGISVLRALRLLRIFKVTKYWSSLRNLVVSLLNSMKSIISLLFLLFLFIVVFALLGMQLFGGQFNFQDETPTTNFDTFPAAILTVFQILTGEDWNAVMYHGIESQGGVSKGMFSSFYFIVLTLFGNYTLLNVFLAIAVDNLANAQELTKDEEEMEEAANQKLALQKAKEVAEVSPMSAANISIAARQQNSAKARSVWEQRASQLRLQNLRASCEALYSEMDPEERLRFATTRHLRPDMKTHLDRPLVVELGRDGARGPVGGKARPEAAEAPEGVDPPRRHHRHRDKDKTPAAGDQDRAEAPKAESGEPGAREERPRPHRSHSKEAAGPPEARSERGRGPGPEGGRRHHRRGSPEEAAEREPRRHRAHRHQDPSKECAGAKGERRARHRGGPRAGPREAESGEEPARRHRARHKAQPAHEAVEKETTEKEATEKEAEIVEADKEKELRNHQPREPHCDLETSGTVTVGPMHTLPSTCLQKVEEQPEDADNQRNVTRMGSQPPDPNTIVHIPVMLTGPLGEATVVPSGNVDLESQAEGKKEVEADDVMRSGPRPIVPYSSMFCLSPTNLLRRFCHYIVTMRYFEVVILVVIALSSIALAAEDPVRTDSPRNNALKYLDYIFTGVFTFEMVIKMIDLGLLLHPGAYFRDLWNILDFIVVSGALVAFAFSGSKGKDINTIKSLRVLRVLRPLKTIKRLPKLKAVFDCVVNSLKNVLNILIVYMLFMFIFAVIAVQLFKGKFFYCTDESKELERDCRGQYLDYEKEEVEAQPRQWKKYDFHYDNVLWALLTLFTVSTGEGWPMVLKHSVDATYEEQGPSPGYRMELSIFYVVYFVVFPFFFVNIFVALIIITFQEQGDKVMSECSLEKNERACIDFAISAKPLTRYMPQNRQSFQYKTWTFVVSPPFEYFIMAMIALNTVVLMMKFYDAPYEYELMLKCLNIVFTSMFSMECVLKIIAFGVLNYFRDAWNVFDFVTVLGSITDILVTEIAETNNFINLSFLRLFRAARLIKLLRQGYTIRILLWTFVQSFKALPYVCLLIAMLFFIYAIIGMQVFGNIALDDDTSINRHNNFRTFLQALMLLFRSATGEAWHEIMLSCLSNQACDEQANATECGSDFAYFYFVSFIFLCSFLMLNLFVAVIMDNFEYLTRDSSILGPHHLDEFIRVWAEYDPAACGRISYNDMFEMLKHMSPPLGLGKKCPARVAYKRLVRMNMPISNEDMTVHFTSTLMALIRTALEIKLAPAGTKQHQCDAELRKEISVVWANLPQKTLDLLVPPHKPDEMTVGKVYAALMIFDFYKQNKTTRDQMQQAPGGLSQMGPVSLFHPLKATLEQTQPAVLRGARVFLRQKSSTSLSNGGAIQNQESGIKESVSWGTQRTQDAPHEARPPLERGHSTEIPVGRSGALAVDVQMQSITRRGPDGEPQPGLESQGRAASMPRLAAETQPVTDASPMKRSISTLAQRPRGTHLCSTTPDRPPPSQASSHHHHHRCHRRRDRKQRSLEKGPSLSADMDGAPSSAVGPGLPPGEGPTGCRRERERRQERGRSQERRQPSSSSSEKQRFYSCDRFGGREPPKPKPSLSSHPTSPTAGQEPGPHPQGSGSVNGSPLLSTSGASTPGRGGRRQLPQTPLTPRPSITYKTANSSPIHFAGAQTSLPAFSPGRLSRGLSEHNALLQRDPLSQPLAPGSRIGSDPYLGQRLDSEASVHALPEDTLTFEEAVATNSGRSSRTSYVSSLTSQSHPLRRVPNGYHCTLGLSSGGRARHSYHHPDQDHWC

Chain of rat α3β2 nAChR (P04757 26-499 limits assumed): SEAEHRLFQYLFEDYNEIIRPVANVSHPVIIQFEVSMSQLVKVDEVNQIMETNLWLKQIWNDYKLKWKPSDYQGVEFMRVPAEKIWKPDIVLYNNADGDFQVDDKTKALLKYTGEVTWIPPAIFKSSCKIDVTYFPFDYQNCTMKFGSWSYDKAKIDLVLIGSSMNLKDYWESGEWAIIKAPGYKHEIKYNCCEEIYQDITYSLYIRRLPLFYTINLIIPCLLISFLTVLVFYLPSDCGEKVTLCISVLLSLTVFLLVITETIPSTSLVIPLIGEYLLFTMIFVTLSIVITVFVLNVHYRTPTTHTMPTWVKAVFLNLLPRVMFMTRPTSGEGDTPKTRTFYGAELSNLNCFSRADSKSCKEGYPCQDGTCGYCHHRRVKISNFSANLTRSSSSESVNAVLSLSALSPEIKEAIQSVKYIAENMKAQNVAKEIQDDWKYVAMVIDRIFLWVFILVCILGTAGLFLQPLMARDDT
Chain of rat α3β2 nAChR (P12390 25-500 limits assumed): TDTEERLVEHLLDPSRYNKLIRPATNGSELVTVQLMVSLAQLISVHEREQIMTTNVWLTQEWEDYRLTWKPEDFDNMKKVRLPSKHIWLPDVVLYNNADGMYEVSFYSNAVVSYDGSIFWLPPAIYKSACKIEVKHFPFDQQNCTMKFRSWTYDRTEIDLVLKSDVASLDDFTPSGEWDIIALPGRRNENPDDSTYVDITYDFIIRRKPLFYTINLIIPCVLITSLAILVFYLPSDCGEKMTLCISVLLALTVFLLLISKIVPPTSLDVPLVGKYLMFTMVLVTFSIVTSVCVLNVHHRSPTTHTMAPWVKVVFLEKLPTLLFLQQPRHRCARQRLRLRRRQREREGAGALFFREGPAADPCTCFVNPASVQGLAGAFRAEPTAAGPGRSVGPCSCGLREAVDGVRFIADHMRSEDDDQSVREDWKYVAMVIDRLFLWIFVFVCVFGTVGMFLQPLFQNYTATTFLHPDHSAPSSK

CC[C@H](C)[C@@H]1NC(=O)[C@@H]2CCCN2C(=O)[C@@H]2CSSC[C@H](NC(=O)[C@@H](N)CC(N)=O)C(=O)N[C@@H](CSSC[C@@H](C(N)=O)NC(=O)[C@H](CC(N)=O)NC(=O)[C@H](Cc3ccccc3)NC(=O)[C@H](C)NC(=O)[C@H](CO)NC(=O)[C@H](Cc3ccc(O)cc3)NC(=O)[C@H](CC(=O)O)NC1=O)C(=O)N[C@@H](CCSC)C(=O)N[C@@H](Cc1ccccc1)C(=O)N[C@@H](Cc1c[nH]cn1)C(=O)N[C@@H]([C@@H](C)O)C(=O)N2 [Vt1.27[R14A]] (H-NCCMFHTCPIDYSAFNC-NH2; disulfide 2-8, 3-17)
Hillslope (rat α3β2 nAChR): -0.871 | IC50 (rat α3β2 nAChR): 2.86 µM | change of potency at the α3β2 nAChR subtype compared with Vt1.27 (in words) (rat α3β2 nAChR): a decrease in the potency

CC[C@H](C)[C@@H]1NC(=O)[C@@H]2CCCN2C(=O)[C@@H]2CSSC[C@H](NC(=O)[C@@H](N)CC(N)=O)C(=O)N[C@@H](CSSC[C@@H](C(N)=O)NC(=O)[C@H](CC(N)=O)NC(=O)[C@H](Cc3ccccc3)NC(=O)[C@H](CCCNC(=N)N)NC(=O)[C@H](CO)NC(=O)[C@H](C)NC(=O)[C@H](CC(=O)O)NC1=O)C(=O)N[C@@H](CCSC)C(=O)N[C@@H](Cc1ccccc1)C(=O)N[C@@H](Cc1c[nH]cn1)C(=O)N[C@@H]([C@@H](C)O)C(=O)N2 [Vt1.27[Y12A]] (H-NCCMFHTCPIDASRFNC-NH2; disulfide 2-8, 3-17)
Hillslope (rat α3β2 nAChR): -1.577 | IC50 (rat α3β2 nAChR): 2.54 µM | change of potency at the α3β2 nAChR subtype compared with Vt1.27 (in words) (rat α3β2 nAChR): a decrease in the potency

CC[C@H](C)[C@@H]1NC(=O)[C@@H]2CCCN2C(=O)[C@@H]2CSSC[C@H](NC(=O)[C@@H](N)CC(N)=O)C(=O)N[C@@H](CSSC[C@@H](C(N)=O)NC(=O)[C@H](CC(N)=O)NC(=O)[C@H](C)NC(=O)[C@H](CCCNC(=N)N)NC(=O)[C@H](CO)NC(=O)[C@H](Cc3ccc(O)cc3)NC(=O)[C@H](CC(=O)O)NC1=O)C(=O)N[C@@H](CCSC)C(=O)N[C@@H](Cc1ccccc1)C(=O)N[C@@H](Cc1c[nH]cn1)C(=O)N[C@@H]([C@@H](C)O)C(=O)N2 [Vt1.27[F15A]] (H-NCCMFHTCPIDYSRANC-NH2; disulfide 2-8, 3-17)
IC50 (rat α3β2 nAChR): > 10 µM | change of potency at the α3β2 nAChR subtype compared with Vt1.27 (in words) (rat α3β2 nAChR): a decrease in the potency | inhibitory activity at CaV2.2 compared with Vt1.27 (in words; percent inhibition of IBa) [1]: equipotent to the native peptide

CC[C@H](C)[C@@H]1NC(=O)[C@H](C)NC(=O)[C@@H]2CSSC[C@H](NC(=O)[C@@H](N)CC(N)=O)C(=O)N[C@@H](CSSC[C@@H](C(N)=O)NC(=O)[C@H](CC(N)=O)NC(=O)[C@H](Cc3ccccc3)NC(=O)[C@H](CCCNC(=N)N)NC(=O)[C@H](CO)NC(=O)[C@H](Cc3ccc(O)cc3)NC(=O)[C@H](CC(=O)O)NC1=O)C(=O)N[C@@H](CCSC)C(=O)N[C@@H](Cc1ccccc1)C(=O)N[C@@H](Cc1c[nH]cn1)C(=O)N[C@@H]([C@@H](C)O)C(=O)N2 [Vt1.27[P9A]] (H-NCCMFHTCAIDYSRFNC-NH2; disulfide 2-8, 3-17)
Hillslope (rat α3β2 nAChR): -0.763 | IC50 (rat α3β2 nAChR): 9.4 µM | change of potency at the α3β2 nAChR subtype compared with Vt1.27 (in words) (rat α3β2 nAChR): a sharp decrease in activity | inhibitory activity at CaV2.2 compared with Vt1.27 (in words; percent inhibition of IBa) [1]: decrease in inhibitory activity

CC[C@H](C)[C@@H]1NC(=O)[C@H](C)NC(=O)[C@@H]2CSSC[C@H](NC(=O)[C@@H](N)CC(N)=O)C(=O)N[C@@H](CSSC[C@@H](C(N)=O)NC(=O)[C@H](CC(N)=O)NC(=O)[C@H](Cc3ccccc3)NC(=O)[C@H](CCCNC(=N)N)NC(=O)[C@H](CO)NC(=O)[C@H](Cc3ccc(O)cc3)NC(=O)[C@H](CC(=O)O)NC1=O)C(=O)N[C@@H](CCSC)C(=O)N[C@@H](Cc1ccccc1)C(=O)N1CCC[C@H]1C(=O)N[C@@H]([C@@H](C)O)C(=O)N2 [Vt1.27[H6P、P9A]] (H-NCCMFPTCAIDYSRFNC-NH2; disulfide 2-8, 3-17)
IC50 (rat α3β2 nAChR): > 10 µM | change of potency at the α3β2 nAChR subtype compared with Vt1.27 (in words) (rat α3β2 nAChR): a significant loss of potency

From paper PMC9230573 (Frontiers in Pharmacology, 2022)
